Reference: patent US9758485B2, “Compounds for controlling arthropods” (priority 2013, dated 2017)
Where two headings read alike, the source gives them in different places.

Legend:
[1] = test system: Spodoptera frugiperda; experiment: Spodoptera frugiperda - spray test; type: in vivo; conditions: foliar, 168 h, caterpillars on maize leaf discs, after 7 days, read-out: efficacy; for pest or weed control at 100 g/ha: application rate 100 g/ha
Procedure: Spodoptera frugiperda—Spray Test
(§1) Solvent: 78.0 parts by weight of acetone and 1.5 parts by weight of dimethylformamide
(§2) Emulsifier: alkylaryl polyglycol ether
(§3) To produce an appropriate active ingredient formulation, 1 part by weight of active ingredient is dissolved using the specified parts by weight of solvent and made up with water containing an emulsifier concentration of 1000 ppm until the desired concentration is attained. To produce further test concentrations, the preparation is diluted with emulsifier-containing water.
Leaf discs of maize (Zea mays) are sprayed with an active ingredient formulation of the desired concentration and, after drying, populated with caterpillars of the armyworm (Spodoptera frugiperda).
After 7 days, efficacy in % is determined. 100% means that all the caterpillars have been killed; 0% means that no caterpillars have been killed.

[2] = test system: Ctenocephalides felis; experiment: Ctenocephalides felis - oral test; type: in vivo; conditions: Ctenocephalides felis, po, 48 h; application rate 100 ppm in citrated cattle blood; adult fleas; kill after 2 days; read-out: efficacy
In short: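 About 20 unfed adult cat fleas fed through a parafilm membrane on citrated cattle blood containing compound, dosed from a DMSO stock. Kill in % scored after 2 days; 100% means all fleas dead.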

[3] = logP determination by HPLC on a reversed-phase column (C18), EEC Directive 79/831 Annex V.A8; type: physicochemical; conditions: for log P: HPLC on reversed-phase column (C18)
[4] = test system: Lucilia cuprina; experiment: Lucilia cuprina test; type: in vivo; conditions: Lucilia cuprina, 48 h; application rate 100 ppm; L1 larvae in minced horsemeat; kill after 2 days; read-out: efficacy
In short: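 About 20 L1 larvae placed on minced horsemeat treated with compound, formulated in DMSO and diluted with water to test concentration. Kill in % scored after 2 days (100% = all larvae dead, 0% = none).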

[5] = test system: Phaedon cochleariae; experiment: Phaedon cochleariae - spray test; type: in vivo; conditions: Phaedon cochleariae, foliar, 168 h, larvae on Chinese cabbage leaf discs, after 7 days, read-out: efficacy; for pest or weed control at 100 g/ha: application rate 100 g/ha
Procedure: Phaedon cochleariae—Spray Test
as §1, §2, §3
Discs of Chinese cabbage leaves (Brassica pekinensis) are sprayed with an active ingredient formulation of the desired concentration and, after drying, populated with larvae of the mustard beetle (Phaedon cochleariae).
After 7 days, efficacy in % is determined. 100% means that all the beetle larvae have been killed; 0% means that no beetle larvae have been killed.

[6] = test system: Tetranychus urticae; experiment: Tetranychus urticae - spray test, OP-resistant; type: in vivo; conditions: foliar, 144 h, bean leaf discs, after 6 days, read-out: efficacy; for pest or weed control at 100 g/ha: application rate 100 g/ha
Procedure: Tetranychus urticae—Spray Test, OP-Resistant
as §1, §2, §3
Discs of bean leaves (Phaseolus vulgaris) infested by all stages of the greenhouse red spider mite (Tetranychus urticae) are sprayed with an active ingredient formulation of the desired concentration.
After 6 days, efficacy in % is determined. 100% means that all the spider mites have been killed; 0% means that none of the spider mites have been killed.

[7] = test system: Rhipicephalus sanguineus; experiment: Rhipicephalus sanguineus - in vitro contact tests with adult brown dog ticks; type: in vivo; conditions: application rate 5 μg/cm^2, after 48 h (dead or moribund)
In short: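 Test compound was dissolved in acetone p.a. (9 mg in 1 ml, then diluted), and 250 μl were spread evenly over the inner surface of 25 ml test tubes on an orbital shaker at 30 rpm for 2 h. Once the solvent evaporated, 5-10 adult Rhipicephalus sanguineus ticks were sealed in, kept dark at room temperature, and after 48 h placed on a 45-50° C. hotplate to score dead or moribund ticks.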

[8] = test system: Musca domestica; experiment: Musca domestica test; type: in vivo; conditions: application rate 100 ppm; adult houseflies; kill after 2 days
In short: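 Compound in DMSO, diluted with water, applied to a sugar-solution sponge; vessels hold 10 adult houseflies. Percent mortality scored after 2 days.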

[9] = test system: Boophilus microplus; experiment: Boophilus microplus - injection test; type: in vivo; conditions: Rhipicephalus microplus, 168 h; application rate 20 μg/animal; injected into engorged adult female ticks; laying of fertile eggs, after 7 days; read-out: efficacy
In short: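 Read-out is % efficacy from fertile egg laying at 7 days: 100% means no tick laid fertile eggs, 0% means all eggs fertile. Each of 5 engorged adult females received 1 μl of DMSO test solution injected abdominally.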

[10] = test system: Meloidogyne incognita; experiment: Meloidogyne incognita test; type: in vivo; conditions: application rate 20 ppm; formation of galls on lettuce roots after 14 days
Procedure: Meloidogyne incognita Test
Solvent: 125.0 parts by weight of acetone
To produce an appropriate active ingredient formulation, 1 part by weight of active ingredient is mixed with the stated amount of solvent and the concentrate is diluted with water to the desired concentration.
Vessels are filled with sand, active ingredient solution, an egg/larvae suspension of the southern root-knot nematode (Meloidogyne incognita) and lettuce seeds. The lettuce seeds germinate and the plants develop. The galls develop on the roots.
After 14 days, the nematicidal efficacy in % is determined by the formation of galls. 100% means that no galls were found; 0% means that the number of galls on the treated plants corresponds to the untreated control.

[11] = test system: Ctenocephalides felis; experiment: Ctenocephalides felis - in vitro contact tests with adult cat fleas; type: in vivo; conditions: application rate 5 μg/cm^2 (=500 g/ha), after 48 h (dead or moribund)
In short: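 Acetone solution coated on test-tube inner walls (900 ppm gives 5 μg/cm^2). After drying, 5-10 adult cat fleas added and kept horizontal at room temperature and ambient humidity. At 48 h fleas knocked down; motionless or uncoordinated ones counted dead/moribund, giving % efficacy.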

[12] = test system: Boophilus microplus Parkhurst strain, SP-resistant; experiment: Boophilus microplus - dip test; type: in vivo; conditions: application rate 100 ppm; dip of engorged adult female ticks; laying of fertile eggs, after 7 days
In short: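 Adult engorged females of SP-resistant Parkhurst strain (8–10 per tube) fully immersed in compound diluted in water from a DMSO solution. Ticks then kept on filter discs in a climate-controlled room; efficacy scored from fertile egg laying at 7 days, with unclear eggs held about 42 days until hatch (100% = no fertile eggs).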

[13] = reversed-phase HPLC column (C18), HPLC, reversed-phase C18, acetonitrile/water with formic acid, 55° C., read-out: logP
[14] = reversed-phase HPLC column (C18), HPLC-MS method a), Table I-T3; read-out: logP^a)
[15] = reversed-phase HPLC column (C18), HPLC-MS method a); read-out: logP^a)

Row | Structure (SMILES) | chromatographic logP [3, 13] | pest or weed control at 100 g/ha [1] | pest or weed control at 100 ppm [2] | pest or weed control at 100 ppm [4] | pest or weed control at 100 g/ha [5] | pest or weed control at 100 g/ha [6] | also measured
1 | O=C(NC1CC1)c1cc(-c2cnn(-c3c(F)cc(C(F)(F)F)cc3F)c2)ccc1Cl [I-T3-48, 2-chloro-N-cyclopropyl-5-[1-[2,6-difluoro-4-(trifluoromethyl)phenyl]pyrazol-4-yl]benzamide] | 3.2 | 100% | 100% | 100% | 100% |  | chromatographic logP [3, 14]: 3.2; chromatographic logP [3, 15]: 3.2
2 | COc1cc(C(F)(F)F)cc(F)c1-n1cc(-c2ccc(Cl)c(C(=O)NC3CC3)c2)cn1 [I-T3-50, 2-chloro-N-cyclopropyl-5-[1-[2-fluoro-6-methoxy-4-(trifluoromethyl)phenyl]pyrazol-4-yl]benzamide] | 3.1 | 83% | 100% | 100% | 100% | 90% | chromatographic logP [3, 14]: 3.1; chromatographic logP [3, 15]: 3.1
3 | O=C(NC1CC1)c1cc(-c2cnn(-c3c(Cl)cc(C(F)(F)F)c(F)c3Cl)c2)ccc1Cl [I-T3-184] |  |  |  |  |  |  | log P [3]: 3.6; efficacy [10]: 90%
4 | N#CC1(NC(=O)c2cc(-c3cnn(-c4c(Cl)cc(C(F)(F)F)c(F)c4Cl)c3)ccc2Cl)CC1 [I-T3-185] |  |  |  |  |  |  | log P [3]: 3.6; efficacy [10]: 90%

More lines, main results first:

Row | chromatographic logP [3, 13] | Structure (SMILES) | pest or weed control at 100 g/ha [1] | pest or weed control at 100 ppm [2] | pest or weed control at 100 ppm [4] | pest or weed control at 100 g/ha [5] | pest or weed control at 100 g/ha [6] | also measured
5 | 5 | Cc1cc(C(F)(C(F)(F)F)C(F)(F)F)cc(C(F)(F)F)c1-n1cc(-c2ccc(Cl)c(C(=S)NC3CC3)c2)cn1 [I-T3-161, 2-chloro-N-cyclopropyl-5-[1-[2-methyl-4-[1,2,2,2-tetrafluoro-1-(trifluoromethyl)ethyl]-6-(trifluoromethyl)phenyl]pyrazol-4-yl]benzenecarbothioamide] | 100% | 100% | 100% | 100% | 100% | efficacy [7]: 100%; chromatographic logP ([3]; reversed-phase HPLC column (C18), HPLC-MS method a), reversed-phase column (C18); read-out: logP^a)): 5; chromatographic logP ([3]; reversed-phase HPLC column (C18), HPLC-MS, reversed-phase column (C18), read-out: log P): 5; efficacy [8]: 100%; pest or weed control at 0.02 mg [9]: 100%
6 | 4.74 | Cc1cc(C(F)(C(F)(F)F)C(F)(F)F)cc(C)c1-c1cnn(-c2ccc(Cl)c(C(=O)NC3CC3)c2)c1 [I-T4-1, N-cyclopropyl-2-chloro-5-[4-[2,6-dimethyl-4-[1,2,2,2-tetrafluoro-1-(trifluoromethyl)ethyl]phenyl]pyrazol-1-yl]benzamide] | 100% | 100% | 100% | 100% | 100% | 
7 | 4.42 | Cc1cc(C(F)(C(F)(F)F)C(F)(F)F)cc(C)c1-c1cnn(-c2cnc(Cl)c(C(=O)NC3CC3)c2)c1 [I-T4-3, 2-chloro-N-cyclopropyl-5-[4-[2,6-dimethyl-4-[1,2,2,2-tetrafluoro-1-(trifluoromethyl)ethyl]phenyl]pyrazol-1-yl]pyridine-3-carboxamide] | 100% | 100% | 100% | 100% | 100% | 
8 | 4.75 | Cc1cc(C(F)(C(F)(F)F)C(F)(F)F)cc(C)c1-c1cc(-c2ccc(Cl)c(C(=O)NC3CC3)c2)on1 [I-T22-1, 2-chloro-N-cyclopropyl-5-[3-[2,6-dimethyl-4-[1,2,2,2-tetrafluoro-1-(trifluoromethyl)ethyl]phenyl]isoxazol-5-yl]benzamide] | 100% | 100% | 100% | 100% | 90% | 
9 | 4.7 | Cc1cc(C(F)(C(F)(F)F)C(F)(F)F)cc(C(F)(F)F)c1-c1cc(-c2ccc(Cl)c(C(=O)NC3(C#N)CC3)c2)on1 [I-T22-7, 2-chloro-N-(1-cyanocyclopropyl)-5-[3-[2-methyl-4-[1,2,2,2-tetrafluoro-1-(trifluoromethyl)ethyl]-6-(trifluoromethyl)phenyl]isoxazol-5-yl]benzamide] | 100% | 100% | 100% | 100% | 100% | efficacy [7]: 100%; efficacy [11]: 100%; efficacy [12]: 100%; efficacy [8]: 100%; pest or weed control at 0.02 mg [9]: 100%
10 | 4.96 | O=C(NC1CC1)c1cc(-c2cc(-c3c(Cl)cc(C(F)(C(F)(F)F)C(F)(F)F)cc3Cl)on2)ccc1Cl [I-T23-1, 2-chloro-N-cyclopropyl-5-[5-[2,6-dichloro-4-[1,2,2,2-tetrafluoro-1-(trifluoromethyl)ethyl]phenyl]isoxazol-3-yl]benzamide] |  | 100% | 100% |  |  | pest or weed control at 500 g/ha ([1]; application rate 500 g/ha): 100%; pest or weed control at 500 g/ha ([6]; application rate 500 g/ha): 100%; pest or weed control at 500 g/ha ([5]; application rate 500 g/ha): 100%
